Test results published in patent US20070225213A1, “Nucleic acid carriers for delivery of therapeutic agents” (priority 2006, published 2007).

Assays:
BHK21 = assay: Effect of plating time on uptake of NAC-MTN and MTN, fluorescence (Example 11); assay type: cell-based, hamster
Experimental: (§1) The effect of plating time on the differential rates of uptake between NAC-MTN and MTN were assayed in cells treated <1 hour and 24 hours after plating.
(§2) On day 1, MCF7, COS7, 3T3, and BHK21 cells were plated out in a standard tissue culture plate. After incubation of 20 minutes samples were added to cells in rows A, C, E, and G. Cells were incubated at 37C in a standard atmosphere of 5%CO2.
(§3) On day 2, samples were added to rows D, F, and H and the fluorescence was obtained EX620/EM680 S=80. Samples were removed from A,C,E and G, replaced with media and fluorescence read again. On day 2 observed significant drug toxicity in cells of rows A,C, E, G. Sample addition was postponed in row B since MCF7 were not yet confluent.
(§4) On day 3, added samples to cells in row B containing confluent MCF7's, removed samples from rows D, F, and H replaced with media and read fluorescence.
(§5) Fluorescence data from cells taken after removal of media was used to quantitate total MTN retained in the cells. Fluorescence data were converted to mg/ml MTN using a standard curve prepared with free MTN or NAC-MTN.
(§6) The percentage difference in fluorescence between cells treated with NAC-MTN or MTN alone was used to compare relative drug uptake.
(§7) The MTN fluorescence ratios were obtained by dividing MTN fluorescence of cells incubated for 24 hours by fluorescence of cells incubated 30 minutes. […] The uptake in BHK21 was roughly equivalent for NAC-MTN regardless of plate adherence, however it should be noted that BHK21 adhere very rapidly to the plate.
(§8) Fluorescence data were converted to micromolar drug concentrations (uM MTN) using a standard curve for either nucleic acid bound or unbound drug, and drug uptake ratios were obtained by dividing the t(24 hour)/t(30 min.). The ratios of absolute drug concentration per well show more dramatic differences in uptake as shown below.

MCF7 = assay: as above; assay type: cell-based, human
Experimental: as §1, §2, §3, §4, §5, §6, §7, §8

COS7 = assay: Toxicity of NAC-MTN vs CD-MTN and MTN, MTT (Example 9, EX042105); assay type: cell-based, green monkey
Experimental: (§9) FIG. 4. […] The relative toxicity of NAC-MTN was compared with MTN and CD-MTN in four cell lines, MCF7(breast cancer), COS7green monkey kidney (SV40 transformed), 3T3 (mouse fibroblast), and BHK21(hamster kidney). Cells were treated with identical amounts of MTN formulated as either NAC-MTN, MTN only, or poly-beta-cyclodextrin-sulfylbutylether(CD-MTN). After an incubation period, cell viability was assayed with MTT assay. The differences in toxicity between NAC-MTN and MTN or NAC-MTN and CD-MTN are shown as % difference. Greater percentage difference correlates to more reduction in relative NAC-MTN toxicity.
(§10) MCF7, COS7, 3T3, and BHK21 cells were plated out in duplicate rows of equivalent cell density in 100ul final volume. Initial cell densities were 2000 cells/well.
(§11) Preparing NAC-MTN, CD-MTN, and MTN only. Combined 180 ul of 0.05 mg/ml MTN with […] 0.1 mg/ml herring sperm genomic DNA (HSGDNA, Promega), 1500 ul of 2× DMEM media containing 20% FBS to give 3.0 ml final volume and 12% final drug loading in the dsDNA. For MTN only, 180 ul of MTN was combined with 1320 ul H2O and 1500 ul 2× DMEM. […]
(§12) Aspirated media in plate and replaced with 50 ul of 0.5 mg/ml MTT in 1× media, incubated 3 hours, aspirated, air dried 5 min and dissolved in 100 ul of isopropyl, read OD at A570. […]

[1] = in vivo, iv
Experimental: Differential targeting and distribution of NAC-MTN or MTN in major organs of the mouse. NAC-MTN or MTN was administered intravenously to mice and detected in major organs after 24 hours. […] Total MTN in tissues was quantified by MTN fluorescence, normalized against total tissue weight, and reported as MTN mg/g tissue.
Mice n=2, were injected i.v. with repeated dose of either NAC-MTN or MTN alone. MTN administered was the same for each mouse.
A 0.4 ml volume of each NAC-MTN or MTN formulation was prepared for injection in HBSS or H2O (Hanks Buffered Saline, Sigma-Aldrich) as indicated below. For NAC-MTN injection, 45 ul 10 mg/ml MTN was diluted first in 325 ul of HBSS solution, then 180 ul of herring sperm DNA (HSDNA, 50 mg/ml stock neutralized, 0.2 um filtered) was added to give a turquoise blue color. […] In MTN injection, 45 ul 10 mg/ml MTN was diluted in 385 ul of H2O.
On day 1, white mice, n=2, 24 g each, were tail vein injected by a micro-catheter with 0.16 ml at 14:50 or 0.15 ml at 15:30, respectively of either NAC-MTN or MTN. A second injection was followed at 17:00 and 16:50 of 0.2 ml each of NAC-MTN or MTN. To quantify total MTN retained, mouse urine was collected after 1st and 2nd injection. Total MTN was assayed in mouse urine immediately after 1st injection and second injection by reading MTN fluorescence 620/680 s=50 of a 0.2 ml sample in a styrene well, bottom read. […] A third dose of 0.2 ml was given the next morning, 22 hours after 1st injection (day 2), of either NAC-MTN or MTN. […] Twenty four hours after first injection (day 2), mice were sacrificed and MTN assayed in major organs. The liver, kidneys, heart, and lung were homogenized at high speed 50,000 rpm, and treated with 1% SDS (sodium dodecyl sulfate). The homogenates were frozen twice and centrifuged for 30 minutes at 14000 rcf.

3T3 = assay: Toxicity of NAC-MTN vs CD-MTN and MTN, MTT (Example 9, EX042105); assay type: cell-based, mouse
Experimental: as §9, §10, §11, §12

[2] = cells treated 24 hour after plating
[3] = cells treated <1 hour after plating
[4] = from standard curve for bound or unbound drug
[5] = 2 uM final MTN, MTT 48 hours after adding samples

With O=C1c2c(O)ccc(O)c2C(=O)c2c(NCCNCCO)ccc(NCCNCCO)c21 [MTN, mitoxantrone] the “MTN FLUOR Ratio of t(24)/t(<1)” value (BHK21) was 0.73, the “FLUOR (MTN fluorescence in cells)” value (BHK21; [2]) was 10746 and the “FLUOR (MTN fluorescence in cells)” value (BHK21; [3]) was 9557. For the same molecule, the “Ratio uM MTN of t(24)/t(<1)” value (BHK21; [4]) was 1.2, the “MTN FLUOR Ratio of t(24)/t(<1)” value (MCF7) was 0.75 and the “FLUOR (MTN fluorescence in cells)” value (MCF7; [2]) was 18819. For the same molecule, the “FLUOR (MTN fluorescence in cells)” value (MCF7; [3]) was 16651, the “Ratio uM MTN of t(24)/t(<1)” value (MCF7; [4]) was 1.2 and the “% tox. relative to media only” value (COS7; [5]) was 56.65%. For the same molecule, the toxic effect (COS7; after 24 hours, 2 uM MTN) was “no toxic effect”, the “toxic effects in mouse” value [1] was “Neither mouse showed any toxic effects” and the “% tox. relative to media only” value (3T3; [5]) was 37.57%. The toxic effect (3T3; after 24 hours, 2 uM MTN) was “no toxic effect”.
